From PubChem BioAssay AID1963838 (Molecular Pharmacology Branch, DTP, NCI, 2024)

Tested on: 855422-203-R-J1-PDC complex spheroid viability
Experiment: Anticancer human tumor 855422-203-R-J1-PDC patient-derived bladder carcinoma cell line growth inhibition [POLQ]
Details: for IC50: curve of first compound; for viability, T/C: stronger effect = lower value
Procedure, shortened: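 Complex spheroid viability model combining PDC tumour cells with endothelial (HUVEC) and MSC stromal cells. Novobiocin, ART-558 or RP6685 were tested singly and in combination with standard and investigational anticancer drugs. Each was titrated in half-log steps from near clinical Cmax, or from 10 microM where Cmax was unknown.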

[1] = second compound 0.0316 µM, first compound 0.0316 µM
[2] = second compound 0.0316 µM, first compound 0.1 µM
[3] = second compound 0.0316 µM, first compound 0.316 µM
[4] = second compound 0.0316 µM, first compound 1 µM
[5] = second compound 0.1 µM, first compound 0.0316 µM
[6] = second compound 0.1 µM, first compound 0.1 µM
[7] = second compound 0.1 µM, first compound 0.316 µM
[8] = second compound 0.1 µM, first compound 1 µM
[9] = second compound 0.316 µM, first compound 0.0316 µM
[10] = second compound 0.316 µM, first compound 0.1 µM
[11] = second compound 0.316 µM, first compound 0.316 µM
[12] = second compound 0.316 µM, first compound 1 µM
[13] = second compound 1 µM, first compound 0.0316 µM
[14] = second compound 1 µM, first compound 0.1 µM
[15] = second compound 1 µM, first compound 0.316 µM
[16] = second compound 1 µM, first compound 1 µM
[17] = second compound 3.16 µM, first compound 0.0316 µM
[18] = second compound 3.16 µM, first compound 0.1 µM
[19] = second compound 3.16 µM, first compound 0.316 µM
[20] = second compound 3.16 µM, first compound 1 µM
[21] = second compound 10 µM, first compound 0.0316 µM
[22] = second compound 10 µM, first compound 0.1 µM
[23] = second compound 10 µM, first compound 0.316 µM
[24] = second compound 10 µM, first compound 1 µM
[25] = second compound 0.0316 µM, first compound 3.16 µM
[26] = second compound 0.0316 µM, first compound 10 µM
[27] = second compound 0.1 µM, first compound 3.16 µM
[28] = second compound 0.1 µM, first compound 10 µM
[29] = second compound 0.316 µM, first compound 3.16 µM
[30] = second compound 0.316 µM, first compound 10 µM
[31] = second compound 1 µM, first compound 3.16 µM
[32] = second compound 1 µM, first compound 10 µM
[33] = second compound 3.16 µM, first compound 3.16 µM
[34] = second compound 3.16 µM, first compound 10 µM
[35] = second compound 10 µM, first compound 3.16 µM
[36] = second compound 10 µM, first compound 10 µM
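Note: spheroids exposed to compounds for seven days before readout.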

In the case of `CCc1c2c(nc3ccc(O)cc13)-c1cc3c(c(=O)n1C2)COC(=O)[C@]3(O)CC` + Cc1cccc(N(C)C(=O)C2C(O)CCN2c2nc(C)cc(C(F)(F)F)c2C#N)c1, the IC50 (second compound 0.0316 µM) is reported as 3.34 nM, the IC50 (second compound 0.1 µM) is reported as 3.49 nM and the IC50 (second compound 0.316 µM) is reported as under 3.16 nM. For the same molecule, the IC50 (second compound 1 µM) was under 3.16 nM, the IC50 (second compound 3.16 µM) was under 3.16 nM and the IC50 (second compound 10 µM) was under 3.16 nM. It also gave a viability, T/C (second compound 0.0316 µM, first compound 0.00316 µM) of 52.3%, a viability, T/C (second compound 0.0316 µM, first compound 0.01 µM) of 9.87% and a viability, T/C [1] of 7.42%. The viability, T/C [2] was 5.03%, the viability, T/C [3] was 3.07% and the viability, T/C [4] was 1.53%. It also gave a viability, T/C (second compound 0.1 µM, first compound 0.00316 µM) of 53.6%, a viability, T/C (second compound 0.1 µM, first compound 0.01 µM) of 14.6% and a viability, T/C [5] of 7.37%. It also gave a viability, T/C [6] of 4.23%, a viability, T/C [7] of 3.04% and a viability, T/C [8] of 1.53%. It also gave a viability, T/C (second compound 0.316 µM, first compound 0.00316 µM) of 46.3%, a viability, T/C (second compound 0.316 µM, first compound 0.01 µM) of 13.7% and a viability, T/C [9] of 6.83%. The viability, T/C [10] was 5.76%, the viability, T/C [11] was 2.86% and the viability, T/C [12] was 1.53%. The viability, T/C (second compound 1 µM, first compound 0.00316 µM) was 44.8%, the viability, T/C (second compound 1 µM, first compound 0.01 µM) was 15.2% and the viability, T/C [13] was 8.04%. For the same molecule, the viability, T/C [14] was 5.03%, the viability, T/C [15] was 2.97% and the viability, T/C [16] was 1.31%. It also gave a viability, T/C (second compound 3.16 µM, first compound 0.00316 µM) of 40%, a viability, T/C (second compound 3.16 µM, first compound 0.01 µM) of 12.1% and a viability, T/C [17] of 6.92%. It also gave a viability, T/C [18] of 5.22%, a viability, T/C [19] of 2.69% and a viability, T/C [20] of 1.55%. For the same molecule, the viability, T/C (second compound 10 µM, first compound 0.00316 µM) was 28.5%, the viability, T/C (second compound 10 µM, first compound 0.01 µM) was 11.5% and the viability, T/C [21] was 7.06%. It also gave a viability, T/C [22] of 3.56%, a viability, T/C [23] of 2.83% and a viability, T/C [24] of 2.09%.

`CNCc1ccc(-c2[nH]c3cc(F)cc4c3c2CCNC4=O)cc1` + Cc1cccc(N(C)C(=O)C2C(O)CCN2c2nc(C)cc(C(F)(F)F)c2C#N)c1 was tested, and the IC50 (second compound 0.0316 µM) was over 10000 nM, the IC50 (second compound 0.1 µM) was over 10000 nM and the IC50 (second compound 0.316 µM) was over 10000 nM. The IC50 (second compound 1 µM) was over 10000 nM, the IC50 (second compound 3.16 µM) was over 10000 nM and the IC50 (second compound 10 µM) was over 10000 nM. The viability, T/C [1] was 115%, the viability, T/C [2] was 101% and the viability, T/C [3] was 99.2%. It also gave a viability, T/C [4] of 104%, a viability, T/C [25] of 114% and a viability, T/C [26] of 108%. It also gave a viability, T/C [5] of 101%, a viability, T/C [6] of 101% and a viability, T/C [7] of 90.5%. For the same molecule, the viability, T/C [8] was 107%, the viability, T/C [27] was 111% and the viability, T/C [28] was 106%. It also gave a viability, T/C [9] of 107%, a viability, T/C [10] of 115% and a viability, T/C [11] of 112%. It also gave a viability, T/C [12] of 103%, a viability, T/C [29] of 113% and a viability, T/C [30] of 120%. For the same molecule, the viability, T/C [13] was 101%, the viability, T/C [14] was 105% and the viability, T/C [15] was 101%. It also gave a viability, T/C [16] of 103%, a viability, T/C [31] of 114% and a viability, T/C [32] of 105%. It also gave a viability, T/C [17] of 112%, a viability, T/C [18] of 108% and a viability, T/C [19] of 118%. The viability, T/C [20] was 98.8%, the viability, T/C [33] was 108% and the viability, T/C [34] was 111%. The viability, T/C [21] was 110%, the viability, T/C [22] was 95.6% and the viability, T/C [23] was 100%. It also gave a viability, T/C [24] of 104%, a viability, T/C [35] of 116% and a viability, T/C [36] of 107%.

`Nc1ccn(C2OC(CO)C(O)C2(F)F)c(=O)n1` (stereo not drawn) + Cc1cccc(N(C)C(=O)C2C(O)CCN2c2nc(C)cc(C(F)(F)F)c2C#N)c1 showed an IC50 (second compound 0.0316 µM) of 78.9 nM, an IC50 (second compound 0.1 µM) of 101 nM and an IC50 (second compound 0.316 µM) of 76.9 nM. For the same molecule, the IC50 (second compound 1 µM) was 85.7 nM, the IC50 (second compound 3.16 µM) was 77.1 nM and the IC50 (second compound 10 µM) was 69.8 nM. For the same molecule, the viability, T/C [1] was 84.7%, the viability, T/C [2] was 41% and the viability, T/C [3] was 12.6%. For the same molecule, the viability, T/C [4] was 12.4%, the viability, T/C [25] was 8.52% and the viability, T/C [26] was 7.11%. For the same molecule, the viability, T/C [5] was 86.4%, the viability, T/C [6] was 50.5% and the viability, T/C [7] was 13.6%. For the same molecule, the viability, T/C [8] was 9.98%, the viability, T/C [27] was 8.34% and the viability, T/C [28] was 6.1%. The viability, T/C [9] was 81.7%, the viability, T/C [10] was 40.7% and the viability, T/C [11] was 11.9%. The viability, T/C [12] was 10.9%, the viability, T/C [29] was 8.07% and the viability, T/C [30] was 5.67%. For the same molecule, the viability, T/C [13] was 83.7%, the viability, T/C [14] was 44.8% and the viability, T/C [15] was 12%. For the same molecule, the viability, T/C [16] was 11.7%, the viability, T/C [31] was 8.68% and the viability, T/C [32] was 6.87%. It also gave a viability, T/C [17] of 86.5%, a viability, T/C [18] of 39.4% and a viability, T/C [19] of 14.8%. It also gave a viability, T/C [20] of 10.2%, a viability, T/C [33] of 10.4% and a viability, T/C [34] of 6.57%. The viability, T/C [21] was 84.5%, the viability, T/C [22] was 34.4% and the viability, T/C [23] was 13.3%. For the same molecule, the viability, T/C [24] was 12.7%, the viability, T/C [35] was 8.82% and the viability, T/C [36] was 8.17%.

`O=C(c1cc(Cc2n[nH]c(=O)c3ccccc23)ccc1F)N1CCN(C(=O)C2CC2)CC1` + Cc1cccc(N(C)C(=O)C2C(O)CCN2c2nc(C)cc(C(F)(F)F)c2C#N)c1 gave an IC50 (second compound 0.0316 µM) of over 10000 nM, an IC50 (second compound 0.1 µM) of over 10000 nM and an IC50 (second compound 0.316 µM) of over 10000 nM. It also gave an IC50 (second compound 1 µM) of over 10000 nM, an IC50 (second compound 3.16 µM) of over 10000 nM and an IC50 (second compound 10 µM) of over 10000 nM. The viability, T/C [1] was 117%, the viability, T/C [2] was 114% and the viability, T/C [3] was 117%. It also gave a viability, T/C [4] of 107%, a viability, T/C [25] of 101% and a viability, T/C [26] of 80.1%. For the same molecule, the viability, T/C [5] was 111%, the viability, T/C [6] was 103% and the viability, T/C [7] was 108%. For the same molecule, the viability, T/C [8] was 109%, the viability, T/C [27] was 101% and the viability, T/C [28] was 75.3%. For the same molecule, the viability, T/C [9] was 105%, the viability, T/C [10] was 95% and the viability, T/C [11] was 110%. The viability, T/C [12] was 111%, the viability, T/C [29] was 103% and the viability, T/C [30] was 76.8%. It also gave a viability, T/C [13] of 104%, a viability, T/C [14] of 108% and a viability, T/C [15] of 111%. For the same molecule, the viability, T/C [16] was 107%, the viability, T/C [31] was 106% and the viability, T/C [32] was 81.2%. It also gave a viability, T/C [17] of 93.8%, a viability, T/C [18] of 103% and a viability, T/C [19] of 120%. The viability, T/C [20] was 103%, the viability, T/C [33] was 105% and the viability, T/C [34] was 66.9%. For the same molecule, the viability, T/C [21] was 109%, the viability, T/C [22] was 113% and the viability, T/C [23] was 114%. It also gave a viability, T/C [24] of 106%, a viability, T/C [35] of 96.7% and a viability, T/C [36] of 65.1%.
